Data on six molecules can be found in patent publication US20240350495A1, “[6R]-MTHF IN B6 ENHANCED 5-FU BASED CHEMOTHERAPY OF CARCINOMA” (Isofol Medical AB, priority 2023, published 2024).

For series [1], the system named is human colon carcinoma HCT116 cell line. The settings on record: supplemented with high concentrations of PLP and leucovorin; cited from earlier work.
Series [2] concerns murine leukemia L1210 cell line. Conditions: supplemented with high concentrations of PLP and leucovorin; cited from earlier work.
The subject of series [3] is human colon carcinoma HT29 cell line. The settings on record: supplemented with high concentrations of PLP and leucovorin; cited from earlier work.
Series [4] can be described thus: Stability of the drug substance salt. Format: physicochemical. The settings on record: compared with very unstable [6R]-5,10-MTHF. The text has this:
Arfolitixorin (former Modufolin®) is a folate-based biomodulator developed by applicant to improve the outcome of a range of antimetabolite treatments used within oncology. One of the therapeutic areas of specific interest included in the development program of arfolitixorin is as biomodulator of 5-fluorouracil (5-FU) activity in standard treatment regime for advanced, metastatic CRC, such as Stage IV. A stable lyophilizate formulation of the naturally occurring diastereoisomeric folate [6R]-5,10-MTHF has successfully been made from the drug substance arfolitixorin hemisulfate. […] As mentioned in the background section of the present application, [6R]-5,10-methylenetetrahydrofolate, abbreviated herein as [6R]-5,10-MTHF, needs to be metabolically formed when using the widely used folate-based drugs leucovorin and levoleucovorin.

The conditions of series [5]: in vitro; cited from earlier work.
The nature of series [6]: [6R]-MTHF levels after arfolitixorin versus comparable leucovorin treatment. Format: in vivo. The text has this:
This dependency on cellular activation provides a hurdle for reaching sufficient levels of the active [6R]-MTHF. […] Secondly, the enzymatic activation is genetically regulated^16,18, and is therefore associated with variability between individuals and conditions. Arfolitoxirin is believed to be efficacious in a larger proportion of patients with less inter- and intra-individual variability. These differences may potentially turn out to be of significant importance for increased clinical efficacy in 5-FU based cancer treatment.

Another series deals with solid tumors. The series is described as follows: Phase I/IIa study ISO-CC-005 of arfolitixorin with 5-FU. The class given is in vivo, human. The settings on record: between 8 and 16 weeks after initiating treatment. Here is the method:
Arfolitixorin has been in development for a number of years and has been studied in several clinical studies.
The completion of the study was announced in January 2020. In total, 105 patients were included in the study. […] These patients had been treated with the “doublet” regimens comprising 120 mg/m^2 arfolitixorin and 5-fluorouracil (5-FU) with either irinotecan or oxaliplatin (ARFIRI/ARFOX). Out of the 31 patients, 17 were treated with an ARFOX regimen.

For series [7] the following is noted: kidneys; cited from earlier work.
The conditions of series [8]: cited from earlier work.
The conditions of series [9]: air, sunlight; cited from earlier work.

“Also recorded” adds a separate entry of the source.

`O=c1[nH]cc(F)c(=O)[nH]1` [5-FU, 5-fluorouracil]: the “cytotoxic activity of 5-FU” value in series [1], in series [2] and in [3] was “potentiated; also recorded: strongly potentiated” in each case.
Turning to `Nc1nc2c(c(=O)[nH]1)N1CN(c3ccc(C(=O)N[C@@H](CCC(=O)O)C(=O)O)cc3)C[C@H]1CN2.Nc1nc2c(c(=O)[nH]1)N1CN(c3ccc(C(=O)N[C@@H](CCC(=O)O)C(=O)O)cc3)C[C@H]1CN2.O=S(=O)(O)O` [arfolitixorin hemisulfate], the “stability of the salt” value in [4] is “unexpectedly stable salt”.
For the molecule `Nc1nc(=O)c2c([nH]1)NC[C@H](CNc1ccc(C(=O)N[C@@H](CCC(=O)O)C(=O)O)cc1)N2C=O` [l-LV], the conversion to methyl-tetrahydrofolate entry in series [5] is given as “rapidly converted to the biologically available methyl-tetrahydrofolate form”.
With `Nc1nc2c(c(=O)[nH]1)N1CN(c3ccc(C(=O)N[C@@H](CCC(=O)O)C(=O)O)cc3)C[C@H]1CN2` [Arfolitixorin, [6R]-5,10-methylenetetrahydrofolate], the “[6R]-MTHF levels relative to comparable treatment with leucovorin” value in series [6] is listed as 3-4 times. Further, the “progression of solid tumors” value in the series with solid tumors is “No statistically significant progression”.
Turning to `Nc1nc2c(c(=O)[nH]1)N(C=O)[C@H](CNc1ccc(C(=O)N[C@@H](CCC(=O)O)C(=O)O)cc1)CN2` [d-LV], in series [7], the excretion entry is recorded as “slowly excreted by the kidneys”.
On to `Cc1ncc(CO)c(CO)c1O.Cl` [Pyridoxine hydrochloride], for which the solubility in water entry in [8] was “One gram dissolves in 5 ml of water”. For the same molecule, in [9], the stability entry was “stable in air and is slowly affected by sunlight”.
